For orientation: melting point means the temperature of the solid-liquid transition.

Each structure is given as a SMILES string.

The values below come from US7649093B2, “Naphthalene compounds as selective estrogen receptor modulators” (Glaxo Smith Kline LLC, priority 2004, dated 2010).

In the case of `COCc1cc2ccccc2c(Oc2ccc(/C=C/C(=O)O)cc2)c1-c1ccccc1`, the melting point lay in the range of 76 to 79 °C.

For the compound `CCCCc1cc2ccccc2c(Oc2ccc(/C=C/C(=O)O)cc2)c1-c1ccc(O)cc1`, the melting point was in the range of 107 to 109 °C. To `Cc1cc2cc(O)ccc2c(Oc2ccc(/C=C/C(=O)O)cc2)c1-c1ccc(O)cc1` [Example 10, (2E)-3-(4-{[6-Hydroxy-2-(4-hydroxyphenyl)-3-methyl-1-naphthalenyl]oxy}phenyl)-2-propenoic acid] belongs 162 to 164 °C; to `CCc1cc2cc(O)ccc2c(Oc2ccc(/C=C/C(=O)O)cc2)c1-c1ccccc1` [Example 11, (2E)-3-{4-[(3-Ethyl-6-hydroxy-2-phenyl-1-naphthalenyl)oxy]phenyl}-2-propenoic acid], 188 to 190 °C.

In turn, `CCc1cc2cc(O)ccc2c(Oc2ccc(/C=C/C(=O)N3CCN(C)CC3)cc2)c1-c1ccccc1` [Example 12, 7-Ethyl-5-({4-[(1E)-3-(4-methyl-1-piperazinyl)-3-oxo-1-propen-1-yl]phenyl}oxy)-6-phenyl-2-naphthalenol] gave a melting point of 195 to 196 °C.

The compound `CC(C)c1cc2cc(O)ccc2c(Oc2ccc(/C=C/C(=O)O)cc2)c1-c1ccccc1` [Example 13, (2E)-3-(4-{[6-Hydroxy-3-(1-methylethyl)-2-phenyl-1-naphthalenyl]oxy}phenyl)-2-propenoic acid] displayed a melting point of 198 to 199 °C.

The compound `CCCCc1cc2cc(O)ccc2c(Oc2ccc(/C=C/C(=O)O)cc2)c1-c1ccccc1` [Example 14, (2E)-3-{4-[(3-Butyl-6-hydroxy-2-phenyl-1-naphthalenyl)oxy]phenyl}-2-propenoic acid] gave a melting point of 128 to 130 °C. Compound `Cc1cc2ccccc2c(Oc2ccc(/C=C/C(=O)O)cc2)c1-c1ccccc1` [Example 15, (2E)-3-{4-[(3-Methyl-2-phenyl-1-naphthalenyl)oxy]phenyl}-2-propenoic acid] returned a melting point of 224 to 225 °C.

In the case of `CCCc1cc2cc(O)ccc2c(Oc2ccc(/C=C/C(=O)O)cc2)c1-c1ccccc1` [Example 16, (2E)-3-{4-[(6-Hydroxy-2-phenyl-3-propyl-1-naphthalenyl)oxy]phenyl}-2-propenoic acid], the melting point was in the range of 120 to 122 °C.

On to `CC(C)Cc1cc2cc(O)ccc2c(Oc2ccc(/C=C/C(=O)O)cc2)c1-c1ccccc1` [Example 17, (2E)-3-(4-{[6-Hydroxy-3-(2-methylpropyl)-2-phenyl-1-naphthalenyl]oxy}phenyl)-2-propenoic acid], for which the melting point lay in the range of 126 to 128 °C. Compound `CCCCCc1cc2cc(O)ccc2c(Oc2ccc(/C=C/C(=O)O)cc2)c1-c1ccccc1` [Example 18, (2E)-3-{4-[(6-Hydroxy-3-pentyl-2-phenyl-1-naphthalenyl)oxy]phenyl}-2-propenoic acid] registered a melting point of 110 to 113 °C. Then `O=C(O)/C=C/c1ccc(Oc2c(-c3ccccc3)c(CCC(F)(F)F)cc3cc(O)ccc23)cc1` [Example 19, (2E)-3-(4-{[6-Hydroxy-2-phenyl-3-(3,3,3-trifluoropropyl)-1-naphthalenyl]oxy}phenyl)-2-propenoic acid], with 118 to 120 °C; and `CCCc1cc2cc(O)c(F)cc2c(Oc2ccc(/C=C/C(=O)O)cc2)c1-c1ccccc1` [Example 20, (2E)-3-{4-[(7-Fluoro-6-hydroxy-2-phenyl-3-propyl-1-naphthalenyl)oxy]phenyl}-2-propenoic acid], with 118 to 120 °C.

As to `O=C(O)/C=C/c1ccc(Oc2c(-c3ccccc3)c(C3CC3)cc3cc(O)ccc23)cc1` [Example 22, (2E)-3-{4-[(3-Cyclopropyl-6-hydroxy-2-phenyl-1-naphthalenyl)oxy]phenyl}-2-propenoic acid], the melting point was in the range of 242 to 243 °C. To `CCCCc1cc2ccccc2c(Oc2ccc(/C=C/C(=O)O)cc2)c1-c1ccc(F)cc1` [Example 24, (2E)-3-(4-{[3-Butyl-2-(4-fluorophenyl)-1-naphthalenyl]oxy}phenyl)-2-propenoic acid] belongs 169 to 170 °C. Then `CCCc1cc2cc(O)c(F)cc2c(Oc2ccc(/C=C/C(N)=O)cc2)c1-c1ccccc1` [Example 25, (2E)-3-{4-[(7-Fluoro-6-hydroxy-2-phenyl-3-propyl-1-naphthalenyl)oxy]phenyl}-2-propenamide], with 121 to 124 °C. Then `CCCCc1cc2ccccc2c(Oc2ccc(/C=C/C(=O)O)cc2)c1-c1ccccc1` [Example 26, (2E)-3-{4-[(3-Butyl-2-phenyl-1-naphthalenyl)oxy]phenyl}-2-propenoic acid], with 160 to 161 °C; and `O=C(O)/C=C/c1ccc(Oc2c(-c3ccccc3)c(C(F)(F)F)cc3ccccc23)cc1` [Example 27, (2E)-3-(4-{[2-Phenyl-3-(trifluoromethyl)-1-naphthalenyl]oxy}phenyl)-2-propenoic acid], with 210 to 211 °C; and `O=C(O)c1ccc(Oc2c(-c3ccc(O)cc3)c(C(F)(F)F)cc3ccccc23)cc1` [Example 28, 4-{[2-(4-Hydroxyphenyl)-3-(trifluoromethyl)-1-naphthalenyl]oxy}benzoic acid], with 244 to 245 °C.

As to `CCCCCCCCc1cc2cc(O)ccc2c(Oc2ccc(/C=C/C(=O)O)cc2)c1-c1ccccc1` [Example 29, (2E)-3-{4-[(6-Hydroxy-3-octyl-2-phenyl-1-naphthalenyl)oxy]phenyl}-2-propenoic acid], the melting point was in the range of 163 to 164 °C.
